According to patent publication US20200223889A1, “Bicyclic Compounds Capable of Binding to Melanocortin 4 Receptor” (Novo Nordisk A/S, priority 2017, published 2020):
Positions of bridges follow the written chain, without caps; N, C: chain ends. Non-standard residues stand in square brackets, D forms with d. Residues, ends and D or L forms follow the SMILES beside them. Thz = O=C(O)[C@@H]1CSCN1

Assay: In vivo obese model: DIO mice treated once daily, food intake and body weight
Method: Stimulation of MC4R signaling is reported to modulate energy intake and expenditure in both humans and rodents. In order to test the effect of MC4R agonists on food intake and body weight, diet-induced obese (DIO) mice were treated once daily with compounds to assess weight loss efficacy.
All animal protocols were approved by an Institutional Animal Care and Use Committee and Ethical Review Committee of Novo Nordisk. Animals were housed according to Novo Nordisk rodent housing standards, and were given ad libitum access to food and water under controlled lighting (12 h:12 h light/dark cycle; lights off 17:00-05:00), temperature (23±2° C.) and relative humidity (50±20%) conditions. Diet-induced obese (DIO) male C57BL/6J mice maintained on a high fat diet (60% kcal fat, 5.24 kcal/gram; RD12492, Research Diets, New Brunswick, N.J., USA) for 22 weeks were obtained from Charles River (France). Upon arrival, the mice were single-housed (one mouse per cage) and allowed to acclimate to their new environment for two weeks prior to the start of treatment.
Prior to initiation of the study, animals were single-housed and acclimated to handling for 7 days. The DIO mice were distributed into groups (n=8/group) such that statistical variations in the mean and standard deviations of fat mass and body weight were minimized between groups. Animals were dosed once daily, subcutaneously at 16:00 with either vehicle or compound
Body weight and food intake were measured immediately prior to dosing each day. The average starting body weight of the mice prior to start of treatment was 47.2±0.2 grams.

[1] = 0.3 μmol/kg once daily s.c., day 1, mean ± SEM
[2] = 0.3 μmol/kg once daily s.c., day 2, mean ± SEM
[3] = 0.3 μmol/kg once daily s.c., day 3, mean ± SEM
[4] = 0.3 μmol/kg once daily s.c., day 4, mean ± SEM
[5] = 0.3 μmol/kg once daily s.c., day 5, mean ± SEM
[6] = 0.3 μmol/kg once daily s.c., day 6, mean ± SEM
[7] = 0.3 μmol/kg once daily s.c., day 7, mean ± SEM
[8] = 0.3 μmol/kg once daily s.c., day 8, mean ± SEM
[9] = 0.3 μmol/kg once daily s.c., day 9, mean ± SEM
[10] = 0.3 μmol/kg once daily s.c., day 10, mean ± SEM
[11] = 0.3 μmol/kg once daily s.c., day 11, mean ± SEM
[12] = 0.3 μmol/kg once daily s.c., day 12, mean ± SEM
[13] = 0.3 μmol/kg once daily s.c., day 13, mean ± SEM
[14] = 0.3 μmol/kg once daily s.c., day 14, mean ± SEM
[15] = 0.3 μmol/kg once daily s.c., day 15, mean ± SEM
[16] = 0.3 μmol/kg once daily s.c., day 16, mean ± SEM
[17] = 0.3 μmol/kg once daily s.c., day 17, mean ± SEM
[18] = 0.3 μmol/kg once daily s.c., day 18, mean ± SEM
[19] = 0.3 μmol/kg once daily s.c., day 19, mean ± SEM
[20] = 0.3 μmol/kg once daily s.c., day 20, mean ± SEM
[21] = 1.5 μmol/kg once daily s.c., day 1, mean ± SEM
[22] = 1.5 μmol/kg once daily s.c., day 2, mean ± SEM
[23] = 1.5 μmol/kg once daily s.c., day 3, mean ± SEM
[24] = 1.5 μmol/kg once daily s.c., day 4, mean ± SEM
[25] = 1.5 μmol/kg once daily s.c., day 5, mean ± SEM
[26] = 1.5 μmol/kg once daily s.c., day 6, mean ± SEM
[27] = 1.5 μmol/kg once daily s.c., day 7, mean ± SEM
[28] = 1.5 μmol/kg once daily s.c., day 8, mean ± SEM
[29] = 1.5 μmol/kg once daily s.c., day 9, mean ± SEM
[30] = 1.5 μmol/kg once daily s.c., day 10, mean ± SEM
[31] = 1.5 μmol/kg once daily s.c., day 11, mean ± SEM
[32] = 1.5 μmol/kg once daily s.c., day 12, mean ± SEM
[33] = 1.5 μmol/kg once daily s.c., day 13, mean ± SEM
[34] = 1.5 μmol/kg once daily s.c., day 14, mean ± SEM
[35] = 1.5 μmol/kg once daily s.c., day 15, mean ± SEM
[36] = 1.5 μmol/kg once daily s.c., day 16, mean ± SEM
[37] = 1.5 μmol/kg once daily s.c., day 17, mean ± SEM
[38] = 1.5 μmol/kg once daily s.c., day 18, mean ± SEM
[39] = 1.5 μmol/kg once daily s.c., day 19, mean ± SEM
[40] = 1.5 μmol/kg once daily s.c., day 20, mean ± SEM

## C[C@@H]1NC(=O)[C@H](CCCCN)NC(=O)[C@@H]2CSSC[C@H](NC(=O)[C@H](Cc3c[nH]c4ccccc34)NC(=O)[C@H](C)NC(=O)[C@@H](CCCCN)NC1=O)C(=O)N1CSC[C@H]1C(=O)N[C@@H](Cc1c[nH]cn1)C(=O)N[C@H](Cc1ccccc1)C(=O)N[C@@H](Cc1c[nH]cn1)C(=O)N[C@@H](Cc1c[nH]c3ccccc13)C(=O)N2 [Chem. 114, c[c[Cys-THAZ-His-D-Phe-His-Trp- Cys]-Lys-Ala-D-Lys-Ala-Trp]] (cyclo(AWC[Thz]H[dF]HWCKA[dK]); disulfide 3-9)
0.3 μmol/kg once daily s.c., day 0, mean ± SEM
  Daily food intake, kcals: 13.4 ± 0.6 kcals
[1]
  Cumulative food intake, kcals: 7.7 ± 0.5 kcals
  Daily food intake, kcals: 7.7 ± 0.5 kcals
  Relative body weight, % initial: 96 ± 0.3 % initial
[2]
  Cumulative food intake, kcals: 13.6 ± 1.5 kcals
  Daily food intake, kcals: 6 ± 1.2 kcals
  Relative body weight, % initial: 94.2 ± 0.3 % initial
[3]
  Cumulative food intake, kcals: 23.5 ± 2.1 kcals
  Daily food intake, kcals: 9.9 ± 0.9 kcals
  Relative body weight, % initial: 93.6 ± 0.5 % initial
[4]
  Cumulative food intake, kcals: 34.3 ± 2.5 kcals
  Daily food intake, kcals: 10.7 ± 0.7 kcals
  Relative body weight, % initial: 91.8 ± 0.7 % initial
[5]
  Cumulative food intake, kcals: 44.8 ± 2.9 kcals
  Daily food intake, kcals: 10.5 ± 0.8 kcals
  Relative body weight, % initial: 91.1 ± 0.6 % initial
[6]
  Cumulative food intake, kcals: 55.6 ± 3.7 kcals
  Daily food intake, kcals: 10.8 ± 0.9 kcals
  Relative body weight, % initial: 89.9 ± 0.9 % initial
[7]
  Cumulative food intake, kcals: 67.7 ± 4.3 kcals
  Daily food intake, kcals: 12.1 ± 0.9 kcals
  Relative body weight, % initial: 89.5 ± 0.9 % initial
[8]
  Cumulative food intake, kcals: 78.8 ± 4.5 kcals
  Daily food intake, kcals: 11.1 ± 0.6 kcals
  Relative body weight, % initial: 88.6 ± 0.9 % initial
[9]
  Cumulative food intake, kcals: 90.8 ± 4.7 kcals
  Daily food intake, kcals: 12.1 ± 0.6 kcals
  Relative body weight, % initial: 88.6 ± 0.9 % initial
[10]
  Cumulative food intake, kcals: 103.2 ± 5.3 kcals
  Daily food intake, kcals: 12.3 ± 0.8 kcals
  Relative body weight, % initial: 87.7 ± 1.1 % initial
[11]
  Cumulative food intake, kcals: 114.2 ± 5.8 kcals
  Daily food intake, kcals: 11 ± 0.7 kcals
  Relative body weight, % initial: 88.2 ± 1.1 % initial
[12]
  Cumulative food intake, kcals: 127.6 ± 6.1 kcals
  Daily food intake, kcals: 13.4 ± 0.6 kcals
  Relative body weight, % initial: 87.2 ± 1.1 % initial
[13]
  Cumulative food intake, kcals: 140.8 ± 6.4 kcals
  Daily food intake, kcals: 13.2 ± 0.7 kcals
  Relative body weight, % initial: 87.1 ± 1.2 % initial
[14]
  Cumulative food intake, kcals: 153.9 ± 6.9 kcals
  Daily food intake, kcals: 13.2 ± 0.7 kcals
  Relative body weight, % initial: 87.3 ± 1.3 % initial
[15]
  Cumulative food intake, kcals: 167.5 ± 7.5 kcals
  Daily food intake, kcals: 13.6 ± 0.7 kcals
  Relative body weight, % initial: 87.4 ± 1.3 % initial
[16]
  Cumulative food intake, kcals: 181.2 ± 7.8 kcals
  Daily food intake, kcals: 13.7 ± 0.5 kcals
  Relative body weight, % initial: 87.5 ± 1.3 % initial
[17]
  Cumulative food intake, kcals: 195.8 ± 7.9 kcals
  Daily food intake, kcals: 14.5 ± 0.5 kcals
  Relative body weight, % initial: 87.4 ± 1.3 % initial
[18]
  Cumulative food intake, kcals: 211 ± 8.3 kcals
  Daily food intake, kcals: 15.3 ± 0.6 kcals
  Relative body weight, % initial: 87.9 ± 1.4 % initial
[19]
  Cumulative food intake, kcals: 225.4 ± 8.7 kcals
  Daily food intake, kcals: 14.3 ± 0.8 kcals
  Relative body weight, % initial: 88.6 ± 1.4 % initial
[20]
  Cumulative food intake, kcals: 241.2 ± 8.5 kcals
  Daily food intake, kcals: 15.9 ± 0.5 kcals
  Relative body weight, % initial: 88.9 ± 1.3 % initial
0.3 μmol/kg once daily subcutaneously
  reduction in body weight, relative to initial body weight: 11.1±1.3%
1.5 μmol/kg once daily s.c., day 0, mean ± SEM
  Daily food intake, kcals: 13.9 ± 1.3 kcals
[21]
  Cumulative food intake, kcals: 5.5 ± 0.8 kcals
  Daily food intake, kcals: 5.5 ± 0.8 kcals
  Relative body weight, % initial: 95.1 ± 0.4 % initial
[22]
  Cumulative food intake, kcals: 10.7 ± 1.4 kcals
  Daily food intake, kcals: 5.2 ± 0.8 kcals
  Relative body weight, % initial: 93 ± 0.4 % initial
[23]
  Cumulative food intake, kcals: 19.8 ± 2.2 kcals
  Daily food intake, kcals: 9.1 ± 0.8 kcals
  Relative body weight, % initial: 92.1 ± 0.6 % initial
[24]
  Cumulative food intake, kcals: 30.5 ± 3.1 kcals
  Daily food intake, kcals: 10.7 ± 1.2 kcals
  Relative body weight, % initial: 91.3 ± 0.7 % initial
[25]
  Cumulative food intake, kcals: 41.1 ± 4 kcals
  Daily food intake, kcals: 10.7 ± 0.9 kcals
  Relative body weight, % initial: 90.6 ± 0.9 % initial
[26]
  Cumulative food intake, kcals: 51.7 ± 4.6 kcals
  Daily food intake, kcals: 10.6 ± 0.8 kcals
  Relative body weight, % initial: 89.6 ± 0.8 % initial
[27]
  Cumulative food intake, kcals: 61.9 ± 5.4 kcals
  Daily food intake, kcals: 10.2 ± 1 kcals
  Relative body weight, % initial: 88.6 ± 0.9 % initial
[28]
  Cumulative food intake, kcals: 73.8 ± 5.8 kcals
  Daily food intake, kcals: 11.9 ± 0.7 kcals
  Relative body weight, % initial: 87.8 ± 0.8 % initial
[29]
  Cumulative food intake, kcals: 86.2 ± 6.4 kcals
  Daily food intake, kcals: 12.4 ± 0.8 kcals
  Relative body weight, % initial: 87.8 ± 1 % initial
[30]
  Cumulative food intake, kcals: 97.5 ± 7.5 kcals
  Daily food intake, kcals: 11.3 ± 1.2 kcals
  Relative body weight, % initial: 87.1 ± 0.9 % initial
[31]
  Cumulative food intake, kcals: 110.4 ± 8.4 kcals
  Daily food intake, kcals: 12.8 ± 1.4 kcals
  Relative body weight, % initial: 86.9 ± 0.9 % initial
[32]
  Cumulative food intake, kcals: 123.3 ± 9.2 kcals
  Daily food intake, kcals: 12.9 ± 0.9 kcals
  Relative body weight, % initial: 86.6 ± 1.1 % initial
[33]
  Cumulative food intake, kcals: 136.4 ± 9.8 kcals
  Daily food intake, kcals: 13.2 ± 0.7 kcals
  Relative body weight, % initial: 86.7 ± 1.3 % initial
[34]
  Cumulative food intake, kcals: 149.3 ± 10.7 kcals
  Daily food intake, kcals: 12.9 ± 1.1 kcals
  Relative body weight, % initial: 86.7 ± 1.3 % initial
[35]
  Cumulative food intake, kcals: 162.8 ± 11.1 kcals
  Daily food intake, kcals: 13.5 ± 0.6 kcals
  Relative body weight, % initial: 86 ± 1.2 % initial
[36]
  Cumulative food intake, kcals: 175.1 ± 11.7 kcals
  Daily food intake, kcals: 12.2 ± 0.7 kcals
  Relative body weight, % initial: 86 ± 1.3 % initial
[37]
  Cumulative food intake, kcals: 188.7 ± 12.2 kcals
  Daily food intake, kcals: 13.6 ± 0.8 kcals
  Relative body weight, % initial: 85.7 ± 1.2 % initial
[38]
  Cumulative food intake, kcals: 202.5 ± 13.1 kcals
  Daily food intake, kcals: 13.8 ± 1 kcals
  Relative body weight, % initial: 85.9 ± 1.2 % initial
[39]
  Cumulative food intake, kcals: 217 ± 13.9 kcals
  Daily food intake, kcals: 14.5 ± 0.9 kcals
  Relative body weight, % initial: 86.4 ± 1.3 % initial
[40]
  Cumulative food intake, kcals: 231.8 ± 13.6 kcals
  Daily food intake, kcals: 14.8 ± 0.8 kcals
  Relative body weight, % initial: 86.8 ± 1.3 % initial
1.5 μmol/kg once daily subcutaneously
  reduction in body weight, relative to initial body weight: 13.2±1.3%
Once daily subcutaneous treatment
  food intake (in words): transient reduction in food intake that returned to baseline levels during the second week of treatment
